Measurements published in publication PMC7023064, “Design, Synthesis, and Evaluation of Novel 2-Methoxyestradiol Derivatives as Apoptotic Inducers through an Intrinsic Apoptosis Pathway” (Biomolecules, 2020).

What was measured:
[1] = test system: human breast cancer MDA-MB-231 cell lines; test: MTT cytotoxicity assay, MDA-MB-231; type: cell-based; settings: mean ± SD of three experiments
Procedure: (§1) Human breast adenocarcinoma MCF-7 cell lines, human breast cancer MDA-MB-231 cell lines, and the normal human liver L-O2 cell lines were provided by Nanjing KeyGen Biotech Co. Ltd. (Nanjing, China). MCF-7 cells were cultured in a base medium (90% RPMI-1640 and 10% FBS) at 37 °C, 5% CO2 and a saturated humidity atmosphere. MDA-MB-231 cells were cultured in a base medium (90% […] and 10% FBS) at 37 °C, 5% CO2 and a saturated humidity atmosphere. L-O2 cells were cultured in a base medium (90% DMEM and 10% FBS) at 37 °C, 5% CO2 and a saturated humidity atmosphere.
(§2) The cytotoxicity of the tested compounds was determined using the 3-(4,5-dimethyl-2-thiazolyl)-2,5-diphenyl-2-H-tetrazolium bromide (MTT) assay. Cells were seeded in 96-well plates and incubated in a 5% CO2 incubator at 37 °C. When the cells adhered, compounds at different concentrations were added to every well. After incubation for another 72 h, MTT solution (5 mg/mL) was added into each well and cells were incubated for an additional 4 h. The viable cells were stained with MTT and scanned with an electrophotometer at 570 nm. Each concentration treatment was done in triplicate wells. The half maximal inhibitory concentration (IC50) values were estimated by fitting the inhibition data to a dose-dependent curve using a logistic derivative equation.

[2] = test system: normal human liver L-O2 cell lines; test: MTT cytotoxicity assay, L-O2; type: cell-based; settings: mean ± SD of three experiments, No = No inhibition detected
Procedure: as §1, §2

MCF-7 cells = test: Mitochondrial membrane potential analysis (JC-1, flow cytometry); type: cell-based, human; settings: 72 h, JC-1 (lower right quadrant)
Procedure: MCF-7 cells were incubated in triplicate and treated with compound 11/12a for 72 h. The cells were washed with PBS and stained with JC-1 dye (Keygen, KGA601) under dark conditions according to the manufacturer’s instructions. After incubation, the cells were washed twice with PBS, and the percentage of cells with collapsed or healthy mitochondrial membrane potentials (MMP) was monitored by flow cytometry analysis (FACS Calibur Becton-Dickinson, San Jose, California, USA).

[3] = test system: MCF-7 and MDA-MB-231 cell lines; test: MTT assay, summary over tested tumor cells; type: cell-based, human; settings: for selectivity towards cancerous cell lines vs healthy cell line: MCF-7 and MDA-MB-231 vs L-O2
Procedure: as §1, §2

| Compound | IC50 ([1]; 72 h) | IC50 ([2]; 72 h) | MCF-7 cells with collapsed MMP (MCF-7 cells; 5 μM) | MCF-7 cells with collapsed MMP (MCF-7 cells; 10 μM) | MCF-7 cells with collapsed MMP (MCF-7 cells; 20 μM) | selectivity towards cancerous cell lines vs healthy cell line [3] | IC50 ([1]; Homo sapiens, MDA-MB-231, 72 h) | IC50 ([2]; Homo sapiens, L02, 72 h) | IC50 ([3]; Homo sapiens, MCF-7 and MDA-MB-231, read-out: IC50, anti-proliferative activity against tested tumor cells) | melting point |
| --- | --- | --- | --- | --- | --- | --- | --- | --- | --- | --- |
| 17 β-[6-(Uracil-3-yl)-Hexyloxy]-2-Methoxy-Estra-1,3,5(10)-Triene-3-ol [Compound 12a] | 13 ± 0.38 µM | 69.3 ± 4.37 µM | 8.78% | 14.56% | 39.75% | about 6 fold | – | – | – | – |
| COc1cc2c(cc1O)CC[C@@H]1[C@@H]2CC[C@]2(C)[C@@H](OCCCCCCCCn3c(=O)ccn([C@@H]4O[C@H](CO)[C@@H](O)[C@H]4O)c3=O)CC[C@@H]12 [Compound 11, 17 β-[8-(1-β-D-Ribofuranosyluracil-3-yl)-Octyloxy]-2-Methoxy-Estra-1,3,5(10)-Triene-3-ol] | – | – | 7.95% | 14.13% | 38.88% | ~7 fold | 14 ± 1.08 µM | > 100 µM | 3.89 to 16.7 µM | 95 to 96 °C |
